Measurements taken from ChEMBL document CHEMBL3879899, “Gastrin releasing peptide compounds” (2011).
Calls of active or inactive are those of the source. The calls are words filed in the database; no cut-off is given here. Where a SMILES comes first, the peptide text is derived from it. The star is where a group is joined. Me2Gly = CN(C)CC(=O)*; Acm = CC(=O)NC*

Target: T1, Gastrin-releasing peptide receptor (Homo sapiens, UniProt P30550)
Test: Displacement of [125I]-BBN from GRPR in human PC3 cells after 1 hr by compuGamma counting or microplate scintillation counting method
Assay type: cell-based, PC-3
Conditions: not given
Target sequence in this assay (P30550 whole entry): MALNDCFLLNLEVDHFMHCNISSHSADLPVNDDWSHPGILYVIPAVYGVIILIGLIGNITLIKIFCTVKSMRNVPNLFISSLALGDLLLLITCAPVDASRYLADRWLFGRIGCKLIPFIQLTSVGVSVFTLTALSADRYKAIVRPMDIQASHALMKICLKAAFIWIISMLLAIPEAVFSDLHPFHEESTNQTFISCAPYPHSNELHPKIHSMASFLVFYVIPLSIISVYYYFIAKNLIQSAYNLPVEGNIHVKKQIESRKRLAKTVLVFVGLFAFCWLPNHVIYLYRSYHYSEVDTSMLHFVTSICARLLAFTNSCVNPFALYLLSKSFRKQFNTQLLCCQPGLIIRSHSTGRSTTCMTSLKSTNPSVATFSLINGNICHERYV

IC50 [nM] | Compound
> 50 | CSCC[C@H](NC(=O)[C@H](CC(C)C)NC(=O)[C@H](Cc1cnc[nH]1)NC(=O)CNC(=O)[C@@H](NC(=O)[C@H](C)NC(=O)[C@H](Cc1c[nH]c2ccccc12)NC(=O)[C@H](CCC(N)=O)NC(=O)CN1CCN(C(=O)CN2CCN(CC(=O)O)CCN(CC(=O)O)CCN(CC(=O)O)CC2)CC1)C(C)C)C(N)=O
> 50 | CSCC[C@H](NC(=O)[C@H](CC(C)C)NC(=O)[C@H](Cc1cnc[nH]1)NC(=O)CNC(=O)[C@@H](NC(=O)[C@H](C)NC(=O)[C@H](Cc1c[nH]c2ccccc12)NC(=O)[C@H](CCC(N)=O)NC(=O)[C@H](CCCNC(=N)N)NC(=O)[C@H](CCCCNC(=O)COCCOCCOCC(=O)N[C@H]1CC[C@]2(C)[C@H]3C[C@H](O)[C@]4(C)[C@@H]([C@H](C)CCC(=O)O)CC[C@H]4[C@@H]3CC[C@]2(C)C1)NC(=O)CNC(=O)CN1CCN(CC(=O)O)CCN(CC(=O)O)CCN(CC(=O)O)CC1)C(C)C)C(N)=O
> 50 | CSCC[C@H](NC(=O)[C@H](CC(C)C)NC(=O)[C@H](Cc1cnc[nH]1)NC(=O)CNC(=O)[C@@H](NC(=O)[C@H](C)NC(=O)[C@H](Cc1c[nH]c2ccccc12)NC(=O)[C@H](CCC(N)=O)NC(=O)C[C@@H]1NC(=O)C2C[C@H](NC(=O)CN3CCN(CC(=O)O)CCN(CC(=O)O)CCN(CC(=O)O)CC3)CN2C1=O)C(C)C)C(N)=O (stereo partly specified)
> 50 | CSCC[C@H](NC(=O)[C@H](CC(C)C)NC(=O)[C@H](Cc1cnc[nH]1)NC(=O)CNC(=O)[C@@H](NC(=O)[C@H](C)NC(=O)[C@H](Cc1c[nH]c2ccccc12)NC(=O)[C@H](CCC(N)=O)NC(=O)[C@@H]1CSC2CC[C@H](NC(=O)CN3CCN(CC(=O)O)CCN(CC(=O)O)CCN(CC(=O)O)CC3)C(=O)N21)C(C)C)C(N)=O (stereo partly specified)
2.2 | CSCC[C@H](NC(=O)[C@H](CC(C)C)NC(=O)[C@H](Cc1cnc[nH]1)NC(=O)CNC(=O)[C@@H](NC(=O)[C@H](C)NC(=O)[C@H](Cc1c[nH]c2ccccc12)NC(=O)[C@H](CCC(N)=O)NC(=O)[C@H](CC(N)=O)NC(=O)CNC(=O)[C@H](Cc1ccc(O)cc1)NC(=O)[C@H](CCCNC(=N)N)NC(=O)[C@H](CCC(N)=O)NC(=O)[C@H](CCC(=O)O)NC(=O)[C@H]1CCCN1)C(C)C)C(N)=O
> 800 | CSCC[C@H](NC(=O)[C@H](CC(C)C)NC(=O)[C@H](Cc1cnc[nH]1)NC(=O)CNC(=O)[C@@H](NC(=O)[C@H](C)NC(=O)[C@@H](N)Cc1c[nH]c2ccccc12)C(C)C)C(N)=O
> 50 | CSCC[C@H](NC(=O)[C@H](CC(C)C)NC(=O)[C@H](Cc1cnc[nH]1)NC(=O)CNC(=O)[C@@H](NC(=O)[C@H](C)NC(=O)[C@H](Cc1c[nH]c2ccccc12)NC(=O)[C@H](CCC(N)=O)NC(=O)CN1CN(c2ccccc2)C2(CCN(C(=O)CN3CCN(CC(=O)O)CCN(CC(=O)O)CCN(CC(=O)O)CC3)CC2)C1=O)C(C)C)C(N)=O
2 | CSCC[C@H](NC(=O)[C@H](CC(C)C)NC(=O)[C@H](Cc1cnc[nH]1)NC(=O)CNC(=O)[C@@H](NC(=O)[C@H](C)NC(=O)[C@H](Cc1c[nH]c2ccccc12)NC(=O)[C@H](CCC(N)=O)NC(=O)[C@H](CCCCN)NC(=O)[C@H](CO)NC(=O)CNC(=O)[C@H](CSCNC(C)=O)NC(=O)[C@H](CO)NC(=O)CN(C)C)C(C)C)C(N)=O (Me2Gly-SC(Acm)GSKQWAVGHLM-NH2)
> 50 | CSCC[C@H](NC(=O)[C@H](CC(C)C)NC(=O)[C@H](Cc1cnc[nH]1)NC(=O)CNC(=O)[C@@H](NC(=O)[C@H](C)NC(=O)[C@H](Cc1c[nH]c2ccccc12)NC(=O)[C@H](CCC(N)=O)NC(=O)[C@@H]1Cc2cccc3c2N1C(=O)[C@@H](NC(=O)CN1CCN(CC(=O)O)CCN(CC(=O)O)CCN(CC(=O)O)CC1)CC3)C(C)C)C(N)=O

Compound | IC50 [nM]
CSCC[C@H](NC(=O)[C@H](CC(C)C)NC(=O)[C@H](Cc1cnc[nH]1)NC(=O)CNC(=O)[C@@H](NC(=O)[C@H](C)NC(=O)[C@H](Cc1c[nH]c2ccccc12)NC(=O)[C@H](CCC(N)=O)NC(=O)[C@H](CCCNC(=N)N)NC(=O)[C@H](CCCCNC(=O)CNC(=O)CN1CCN(CC(=O)O)CCN(CC(=O)O)CCN(CC(=O)O)CC1)NC(=O)COCCOCCOCC(=O)N[C@H]1CC[C@]2(C)[C@H]3C[C@H](O)[C@]4(C)[C@@H]([C@H](C)CCC(=O)O)CC[C@H]4[C@@H]3CC[C@]2(C)C1)C(C)C)C(N)=O | > 50
CSCC[C@H](NC(=O)[C@H](CC(C)C)NC(=O)[C@H](Cc1cnc[nH]1)NC(=O)CNC(=O)[C@@H](NC(=O)[C@H](C)NC(=O)[C@H](Cc1c[nH]c2ccccc12)NC(=O)[C@H](CCC(N)=O)NC(=O)Cn1cnc2ccc(N3CCN(C(=O)CN4CCN(CC(=O)O)CCN(CC(=O)O)CCN(CC(=O)O)CC4)CC3)cc2c1=O)C(C)C)C(N)=O | > 50

Same assay, conditions: pc-3

IC50 [nM] | Compound
50 | CSCC[C@H](NC(=O)[C@H](CC(C)C)NC(=O)[C@H](Cc1c[nH]cn1)NC(=O)CNC(=O)[C@@H](NC(=O)[C@H](C)NC(=O)[C@H](Cc1c[nH]c2ccccc12)NC(=O)[C@H](CCC(N)=O)NC(=O)CN1CCCC[C@H](NC(=O)CN2CCN(CC(=O)O)CCN(CC(=O)O)CCN(CC(=O)O)CC2)C1=O)C(C)C)C(N)=O

System: not listed separately
Test: Drug internalization in human PC3 cells after 40 mins by gamma counting method
Assay type: ADME, cell-based
Conditions: pc-3, 40 min

Drug uptake [%] | Compound
59 | CSCC[C@H](NC(=O)[C@H](CC(C)C)NC(=O)[C@H](Cc1cnc[nH]1)NC(=O)CNC(=O)[C@@H](NC(=O)[C@H](C)NC(=O)[C@H](Cc1c[nH]c2ccccc12)NC(=O)[C@H](CCC(N)=O)NC(=O)[C@H](CC(N)=O)NC(=O)CNC(=O)[C@H](CC(C)C)NC(=O)[C@H](CCCN=C(N)N)NC(=O)[C@H](CCC(N)=O)NC(=O)[C@@H]1CCC(=O)N1)C(C)C)C(N)=O [BOMBESIN]

System: not listed separately
Test: Drug efflux in human PC3 cells after 2 hrs by gamma counting method
Assay type: ADME, cell-based
Conditions: pc-3, 2 h

Drug transport [%] | Compound
35 | CSCC[C@H](NC(=O)[C@H](CC(C)C)NC(=O)[C@H](Cc1cnc[nH]1)NC(=O)CNC(=O)[C@@H](NC(=O)[C@H](C)NC(=O)[C@H](Cc1c[nH]c2ccccc12)NC(=O)[C@H](CCC(N)=O)NC(=O)[C@H](CC(N)=O)NC(=O)CNC(=O)[C@H](CC(C)C)NC(=O)[C@H](CCCN=C(N)N)NC(=O)[C@H](CCC(N)=O)NC(=O)[C@@H]1CCC(=O)N1)C(C)C)C(N)=O [BOMBESIN]

Target: T2, Neuromedin-B receptor (Rattus norvegicus, UniProt P24053)
T2 sequence (P24053 whole entry): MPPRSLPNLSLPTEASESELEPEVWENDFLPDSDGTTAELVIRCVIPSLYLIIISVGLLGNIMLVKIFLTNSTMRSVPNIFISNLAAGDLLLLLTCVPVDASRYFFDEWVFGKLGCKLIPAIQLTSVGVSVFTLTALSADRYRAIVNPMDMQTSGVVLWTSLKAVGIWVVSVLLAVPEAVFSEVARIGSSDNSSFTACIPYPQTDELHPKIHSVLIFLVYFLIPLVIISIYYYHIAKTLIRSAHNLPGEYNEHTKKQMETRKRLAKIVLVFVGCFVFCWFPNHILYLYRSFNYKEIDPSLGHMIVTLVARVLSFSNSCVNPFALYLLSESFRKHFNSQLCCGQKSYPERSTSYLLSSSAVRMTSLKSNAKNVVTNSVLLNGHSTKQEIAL
Test: Displacement of [125I]-NMB from NMB receptor in rat C6 cells
Assay type: cell-based
Conditions: not given

IC50 [nM] | Compound
60 | CSCC[C@H](NC(=O)[C@H](CC(C)C)NC(=O)[C@H](Cc1cnc[nH]1)NC(=O)CNC(=O)[C@@H](NC(=O)[C@H](C)NC(=O)[C@H](Cc1c[nH]c2ccccc12)NC(=O)[C@H](CCC(N)=O)NC(=O)[C@H](CCC(=O)O)NC(=O)[C@H](CCCCN)NC(=O)CNC(=O)[C@H](CSCNC(C)=O)NC(=O)[C@H](CO)NC(=O)CN(C)C)C(C)C)C(N)=O
0.07 to 0.8 | CSCC[C@H](NC(=O)[C@H](Cc1ccccc1)NC(=O)[C@H](Cc1c[nH]cn1)NC(=O)CNC(=O)[C@@H](NC(=O)[C@H](C)NC(=O)[C@H](Cc1c[nH]c2ccccc12)NC(=O)[C@H](CC(C)C)NC(=O)c1ccc(NC(=O)CNC(=O)CN2CCN(CC(=O)O)CCN(CC(=O)O)CCN(CC(=O)O)CC2)cc1)C(C)O)C(N)=O (stereo partly specified)
3.36 | CSCC[C@H](NC(=O)[C@H](CC(C)C)NC(=O)[C@H](Cc1cnc[nH]1)NC(=O)CNC(=O)[C@@H](NC(=O)[C@H](C)NC(=O)[C@H](Cc1c[nH]c2ccccc12)NC(=O)[C@H](CCC(N)=O)NC(=O)[C@H](CC(N)=O)NC(=O)CNC(=O)[C@H](Cc1ccc(O)cc1)NC(=O)[C@H](CCCNC(=N)N)NC(=O)[C@H](CCC(N)=O)NC(=O)[C@H](CCC(=O)O)NC(=O)[C@H]1CCCN1)C(C)C)C(N)=O
> 800 | CSCC[C@H](NC(=O)[C@H](CC(C)C)NC(=O)[C@H](Cc1cnc[nH]1)NC(=O)CNC(=O)[C@@H](NC(=O)[C@H](C)NC(=O)[C@@H](N)Cc1c[nH]c2ccccc12)C(C)C)C(N)=O
> 250 | CSCC[C@H](NC(=O)[C@H](CC(C)C)NC(=O)[C@H](Cc1cnc[nH]1)NC(=O)CNC(=O)[C@@H](NC(=O)[C@H](C)NC(=O)[C@H](Cc1c[nH]c2ccccc12)NC(=O)[C@H](CCC(N)=O)NC(=O)CN1CCN(CC(=O)O)CCN(CC(=O)O)CCN(CC(=O)O)CC1)C(C)C)C(N)=O

Compound | IC50 [nM]
CSCC[C@H](NC(=O)[C@H](CC(C)C)NC(=O)[C@H](Cc1cnc[nH]1)NC(=O)CNC(=O)[C@@H](NC(=O)[C@H](C)NC(=O)[C@H](Cc1c[nH]c2ccccc12)NC(=O)[C@H](CCC(N)=O)NC(=O)[C@H]1CC[C@H](CNC(=O)[C@H]2CC[C@H](CNC(=O)CN3CCN(CC(=O)O)CCN(CC(=O)O)CCN(CC(=O)O)CC3)CC2)CC1)C(C)C)C(N)=O | 0.3

Target: T1, Gastrin-releasing peptide receptor
Test: Binding affinity to GRP receptor in human colon smooth muscle after 1 hr by autoradiography
Conditions: not given
Target sequence in this assay (P30550 whole entry, looked up): as the sequence (P30550 whole entry) above

Activity | Compound
Active | CCCCC(NC(=O)[C@H](Cc1ccccc1)NC(=O)[C@H](Cc1cnc[nH]1)NC(=O)CCNC(=O)[C@@H](NC(=O)[C@H](C)NC(=O)[C@H](Cc1c[nH]c2ccccc12)NC(=O)[C@H](CCC(N)=O)NC(=O)C(N)Cc1ccc(O)cc1)C(C)C)C(N)=O (stereo in doubt)
